# Data reported in patent US8796289B2 (AbbVie Inc., priority 2011, dated 2014).
# Biological target: GST-tagged-Wee1 kinase (Homo sapiens, UniProt P30291)
# Test: Wee1 time-resolved fluorescence equilibrium binding assay (displacement of Oregon Green-labeled ATP-competitive kinase probe)
# Method: Wee1 kinase was assayed using a time-resolved fluorescence equilibrium binding assay monitoring displacement of a rapidly reversible Oregon Green-labeled ATP-competitive kinase probe (N-(2-(2-(2-(4-(4-(5-chloro-4-(2-(1-hydroxycyclobutyl)thiazol-5-yl)-1H-pyrrolo[2,3-b]pyridin-2-yl)phenyl)piperazin-1-yl)ethoxy)ethoxy)ethyl)-2′,7′-difluoro-3′,6′-dihydroxy-3-oxo-3H-spiro[isobenzofuran-1,9′-xanthene]-5-carboxamide) by competitive Wee1 inhibitors.
# Sequence of GST-tagged-Wee1 kinase (P30291 whole entry): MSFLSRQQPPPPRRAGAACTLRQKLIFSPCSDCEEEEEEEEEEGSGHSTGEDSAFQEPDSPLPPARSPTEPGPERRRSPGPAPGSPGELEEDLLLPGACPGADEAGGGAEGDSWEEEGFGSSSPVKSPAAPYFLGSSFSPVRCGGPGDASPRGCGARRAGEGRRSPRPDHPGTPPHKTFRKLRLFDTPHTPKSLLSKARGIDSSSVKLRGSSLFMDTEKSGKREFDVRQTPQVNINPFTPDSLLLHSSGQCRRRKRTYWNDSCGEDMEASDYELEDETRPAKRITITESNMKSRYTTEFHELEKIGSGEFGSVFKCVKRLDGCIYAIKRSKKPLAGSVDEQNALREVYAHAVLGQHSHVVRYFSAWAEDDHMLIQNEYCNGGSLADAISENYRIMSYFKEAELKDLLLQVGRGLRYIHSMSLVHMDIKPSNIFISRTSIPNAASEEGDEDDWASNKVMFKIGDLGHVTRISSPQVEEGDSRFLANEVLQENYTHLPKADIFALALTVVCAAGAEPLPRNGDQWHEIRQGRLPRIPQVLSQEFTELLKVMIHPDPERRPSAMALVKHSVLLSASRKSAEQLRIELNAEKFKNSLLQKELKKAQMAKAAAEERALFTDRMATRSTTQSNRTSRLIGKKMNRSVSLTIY
row,Ki,Structure (SMILES)
1,5 nM,"C=CCn1nc(-c2ccccc2)c2nc(Nc3ccc4c(c3)CN(C)CC4)ncc2c1=O [Example 230, 2-[(2-methyl-1,2,3,4-tetrahydroisoquinolin-7-yl)amino]-8-phenyl-6-(prop-2-en-1-yl)pyrimido[4,5-d]pyridazin-5(6H)-one]"
2,0.1 nM,"CN1CCN(c2ccc(Nc3ncc4c(=O)n(-c5c(Cl)cccc5Cl)nc(-c5cc[nH]n5)c4n3)cc2)CC1 [Example 231, 6-(2,6-dichlorophenyl)-2-{[4-(4-methylpiperazin-1-yl)phenyl]amino}-8-(1H-pyrazol-3-yl)pyrimido[4,5-d]pyridazin-5(6H)-one]"
3,0.2 nM,"CN1CCN(c2ccc(Nc3ncc4c(=O)n(-c5c(Cl)cccc5Cl)nc(-c5ccn(CCN6CCCCC6)n5)c4n3)cc2)CC1 [Example 232, 6-(2,6-dichlorophenyl)-2-{[4-(4-methylpiperazin-1-yl)phenyl]amino}-8-{1-[2-(piperidin-1-yl)ethyl]-1H-pyrazol-3-yl}pyrimido[4,5-d]pyridazin-5(6H)-one]"
4,0.3 nM,"Cc1ccccc1-n1nc(-c2ccco2)c2nc(Nc3ccc4c(c3)CN(C)CC4)ncc2c1=O [Example 233, 8-(furan-2-yl)-6-(2-methylphenyl)-2-[(2-methyl-1,2,3,4-tetrahydroisoquinolin-7-yl)amino]pyrimido[4,5-d]pyridazin-5(6H)-one]"
5,0.3 nM,"CN1CCN(c2ccc(Nc3ncc4c(=O)n(-c5c(Cl)cccc5Cl)nc(-c5ccn(CCCl)n5)c4n3)cc2)CC1 [Example 234, 8-[1-(2-chloroethyl)-1H-pyrazol-3-yl]-6-(2,6-dichlorophenyl)-2-{[4-(4-methylpiperazin-1-yl)phenyl]amino}pyrimido[4,5-d]pyridazin-5(6H)-one]"
6,0.1 nM,"CN1CCN(c2ccc(Nc3ncc4c(=O)n(-c5c(Cl)cccc5Cl)nc(-c5ccn(CCN)n5)c4n3)cc2)CC1 [Example 235, 8-[1-(2-aminoethyl)-1H-pyrazol-3-yl]-6-(2,6-dichlorophenyl)-2-{[4-(4-methylpiperazin-1-yl)phenyl]amino}pyrimido[4,5-d]pyridazin-5(6H)-one]"
7,< 1 nM,"C=Cn1ccc(-c2nn(-c3c(Cl)cccc3Cl)c(=O)c3cnc(Nc4ccc(N5CCN(C)CC5)cc4)nc23)n1 [Example 236, 6-(2,6-dichlorophenyl)-8-(1-ethenyl-1H-pyrazol-3-yl)-2-{[4-(4-methylpiperazin-1-yl)phenyl]amino}pyrimido[4,5-d]pyridazin-5(6H)-one]"
8,0.2 nM,"O=c1c2cnc(Nc3ccc(N4CCNCC4)cc3)nc2c(-c2cccc(CN3CCCCC3)c2)nn1-c1c(Cl)cccc1Cl [Example 237, 6-(2,6-dichlorophenyl)-2-{[4-(piperazin-1-yl)phenyl]amino}-8-[3-(piperidin-1-ylmethyl)phenyl]pyrimido[4,5-d]pyridazin-5(6H)-one]"
9,34 nM,"CC1(C)CNCc2cc(Nc3ncc4c(=O)n(-c5ccncc5)nc(-c5ccccn5)c4n3)ccc21 [Example 238, 2-[(4,4-dimethyl-1,2,3,4-tetrahydroisoquinolin-7-yl)amino]-8-(pyridin-2-yl)-6-(pyridin-4-yl)pyrimido[4,5-d]pyridazin-5(6H)-one]"
10,25 nM,"CN1Cc2cc(Nc3ncc4c(=O)n(-c5ccncc5)nc(-c5ccccn5)c4n3)ccc2C(C)(C)C1 [Example 239, 8-(pyridin-2-yl)-6-(pyridin-4-yl)-2-[(2,4,4-trimethyl-1,2,3,4-tetrahydroisoquinolin-7-yl)amino]pyrimido[4,5-d]pyridazin-5(6H)-one]"
11,0.5 nM,"CN(C)CCn1ccc(-c2nn(-c3c(Cl)cccc3Cl)c(=O)c3cnc(Nc4ccc(N5CCN(C)CC5)cc4)nc23)n1 [Example 240, 6-(2,6-dichlorophenyl)-8-{1-[2-(dimethylamino)ethyl]-1H-pyrazol-3-yl}-2-{[4-(4-methylpiperazin-1-yl)phenyl]amino}pyrimido[4,5-d]pyridazin-5(6H)-one]"
12,0.1 nM,"CN1Cc2cc(Nc3ncc4c(=O)n(-c5c(Cl)cccc5Cl)nc(-c5ccccn5)c4n3)ccc2C(C)(C)C1 [Example 241, 6-(2,6-dichlorophenyl)-8-(pyridin-2-yl)-2-[(2,4,4-trimethyl-1,2,3,4-tetrahydroisoquinolin-7-yl)amino]pyrimido[4,5-d]pyridazin-5(6H)-one]"
13,50 nM,"CN1Cc2cc(Nc3ncc4c(=O)n(CCO)nc(-c5ccccn5)c4n3)ccc2C(C)(C)C1 [Example 242, 6-(2-hydroxyethyl)-8-(pyridin-2-yl)-2-[(2,4,4-trimethyl-1,2,3,4-tetrahydroisoquinolin-7-yl)amino]pyrimido[4,5-d]pyridazin-5(6H)-one]"
14,< 1 nM,"CN1CCN(c2ccc(Nc3ncc4c(=O)n(-c5c(Cl)cccc5Cl)nc(-c5cccc(F)n5)c4n3)cc2)CC1 [Example 243, 6-(2,6-dichlorophenyl)-8-(6-fluoropyridin-2-yl)-2-{[4-(4-methylpiperazin-1-yl)phenyl]amino}pyrimido[4,5-d]pyridazin-5(6H)-one]"
15,0.5 nM,"CN1CCN(c2ccc(Nc3ncc4c(=O)n(-c5c(Cl)cccc5Cl)nc(-c5ccc(N6CCCC6=O)cc5)c4n3)cc2)CC1 [Example 244, 6-(2,6-dichlorophenyl)-2-{[4-(4-methylpiperazin-1-yl)phenyl]amino}-8-[4-(2-oxopyrrolidin-1-yl)phenyl]pyrimido[4,5-d]pyridazin-5(6H)-one]"
16,0.7 nM,"CN1CCc2ccc(Nc3ncc4c(=O)n(-c5ccccc5Cl)nc(-c5ccccc5)c4n3)cc2C1 [Example 245, 6-(2-chlorophenyl)-2-[(2-methyl-1,2,3,4-tetrahydroisoquinolin-7-yl)amino]-8-phenylpyrimido[4,5-d]pyridazin-5(6H)-one]"
17,0.3 nM,"Cc1cc(Nc2ncc3c(=O)n(-c4ccccc4C)nc(-c4ccco4)c3n2)ccc1N1CCCN(C(C)C)CC1 [Example 246, 8-(furan-2-yl)-6-(2-methylphenyl)-2-({3-methyl-4-[4-(propan-2-yl)-1,4-diazepan-1-yl]phenyl}amino)pyrimido[4,5-d]pyridazin-5(6H)-one]"
18,0.2 nM,"O=C1CCCN1c1ccc(-c2nn(-c3c(Cl)cccc3Cl)c(=O)c3cnc(Nc4ccc5c(c4)CNCC5)nc23)cc1 [Example 247, 6-(2,6-dichlorophenyl)-8-[4-(2-oxopyrrolidin-1-yl)phenyl]-2-(1,2,3,4-tetrahydroisoquinolin-7-ylamino)pyrimido[4,5-d]pyridazin-5(6H)-one]"
19,0.4 nM,"CN1CCN(c2ccc(Nc3ncc4c(=O)n(-c5c(Cl)cccc5Cl)nc(-c5ccnc(C(=O)N(C)C)c5)c4n3)cc2)CC1 [Example 248, 4-[6-(2,6-dichlorophenyl)-2-{[4-(4-methylpiperazin-1-yl)phenyl]amino}-5-oxo-5,6-dihydropyrimido[4,5-d]pyridazin-8-yl]-N,N-dimethylpyridine-2-carboxamide]"
20,1500 nM,"O=c1c2cnc(Nc3ccc(N4CCNCC4)cc3)nc2c(-c2ccccn2)nn1C1CCCCC1 [Example 249, 6-cyclohexyl-2-{[4-(piperazin-1-yl)phenyl]amino}-8-(pyridin-2-yl)pyrimido[4,5-d]pyridazin-5(6H)-one]"
21,0.2 nM,"CN1CCN(c2ccc(Nc3ncc4c(=O)n(-c5c(Cl)cccc5Cl)nc(-c5ccnc(C(C)(C)O)c5)c4n3)cc2)CC1 [Example 250, 6-(2,6-dichlorophenyl)-8-[2-(2-hydroxypropan-2-yl)pyridin-4-yl]-2-{[4-(4-methylpiperazin-1-yl)phenyl]amino}pyrimido[4,5-d]pyridazin-5(6H)-one]"
22,0.2 nM,"O=c1c2cnc(Nc3ccc4c(c3)CNCC4)nc2c(-c2cnccn2)nn1-c1c(Cl)cccc1Cl [Example 251, 6-(2,6-dichlorophenyl)-8-(pyrazin-2-yl)-2-(1,2,3,4-tetrahydroisoquinolin-7-ylamino)pyrimido[4,5-d]pyridazin-5(6H)-one]"
23,0.4 nM,"COCCn1ccc(-c2nn(-c3c(Cl)cccc3Cl)c(=O)c3cnc(Nc4ccc(N5CCN(C)CC5)cc4)nc23)n1 [Example 252, 6-(2,6-dichlorophenyl)-8-[1-(2-methoxyethyl)-1H-pyrazol-3-yl]-2-{[4-(4-methylpiperazin-1-yl)phenyl]amino}pyrimido[4,5-d]pyridazin-5(6H)-one]"
24,0.09 nM,"O=c1c2cnc(Nc3ccc4c(c3)CNCC43CC3)nc2c(-c2ccncc2)nn1-c1c(Cl)cccc1Cl [Example 253, 6-(2,6-dichlorophenyl)-2-(2′,3′-dihydro-1′H-spiro[cyclopropane-1,4′-isoquinolin]-7′-ylamino)-8-(pyridin-4-yl)pyrimido[4,5-d]pyridazin-5(6H)-one]"
25,0.3 nM,"O=C1CCCN1c1ccc(-c2nn(-c3c(Cl)cccc3Cl)c(=O)c3cnc(Nc4ccc(C5CCNCC5)cc4)nc23)cc1 [Example 254, 6-(2,6-dichlorophenyl)-8-[4-(2-oxopyrrolidin-1-yl)phenyl]-2-{[4-(piperidin-4-yl)phenyl]amino}pyrimido[4,5-d]pyridazin-5(6H)-one]"
26,> 3140 nM,"O=c1c2cnc(Nc3ccc(S(=O)(=O)N4CCOCC4)cc3)nc2c(-c2ccccc2)nn1-c1ccccc1Cl [Example 255, 6-(2-chlorophenyl)-2-{[4-(morpholin-4-ylsulfonyl)phenyl]amino}-8-phenylpyrimido[4,5-d]pyridazin-5(6H)-one]"
27,0.3 nM,"CN1Cc2cc(Nc3ncc4c(=O)n(-c5c(Cl)cccc5Cl)nc(-c5ccncc5)c4n3)ccc2C(C)(C)C1 [Example 256, 6-(2,6-dichlorophenyl)-8-(pyridin-4-yl)-2-[(2,4,4-trimethyl-1,2,3,4-tetrahydroisoquinolin-7-yl)amino]pyrimido[4,5-d]pyridazin-5(6H)-one]"
28,2 nM,"O=c1c2cnc(Nc3ccc4c(c3)CNCC43CC3)nc2c(-c2cccc(F)n2)nn1-c1c(Cl)cccc1Cl [Example 257, 6-(2,6-dichlorophenyl)-2-(2′,3′-dihydro-1′H-spiro[cyclopropane-1,4′-isoquinolin]-7′-ylamino)-8-(6-fluoropyridin-2-yl)pyrimido[4,5-d]pyridazin-5(6H)-one]"
